# Assay: Evaluation of wet heat resistance of optical film (change of in-plane retardation Re)
# Assay type: physicochemical
# Settings: HB(C6F5)4 used instead of the additive B-1 of Example 1
# Protocol: The optical film manufactured in each of Examples and Comparative Examples was left to stand in an environment at a temperature of 65° C. and a humidity of 90% for 500 hours, and the in-plane retardation Re of the optical film before being left to stand in a wet heat environment (initial Re1) and the in-plane retardation Re of the optical film after being left to stand in a wet heat environment (Re1 after standing) were compared to each other to calculate a Re change rate 1.
# Furthermore, the Re change rate 1 is calculated by the following equation.
# Re change rate 1(%)={(Initial Re1−Re1 after standing)/Initial Re1}×100
# Furthermore, a comparative optical film was manufactured without use of an additive of each of Examples and Comparative Examples, and according to the same procedure as above, the in-plane retardation Re of the comparative optical film before being left to stand in a wet heat environment (initial Re2) and the in-plane retardation Re of the comparative optical film after being left to stand in a wet heat environment (Re2 after standing) were compared to each other to calculate a Re change rate 2.
# Furthermore, the Re change rate 2 is calculated by the following equation. […]
# A difference between the Re change rate 2 and the Re change rate 1 (Re change rate 2-Re change rate 1) was evaluated according to the following standard. […]
smiles,measurement,value
Fc1c(F)c(F)c([B-](c2c(F)c(F)c(F)c(F)c2F)(c2c(F)c(F)c(F)c(F)c2F)c2c(F)c(F)c(F)c(F)c2F)c(F)c1F.[H+] [HB(C6F5)4],Wet heat resistance (in words),the same extent of effects as in Example 1
